Measured values: patent US10253002B2, “Compounds and methods of treating infections” (Neoculi Pty Ltd., priority 2013, dated 2019)
In brackets after ≈: the same amount, converted by molar mass. Several values for one entry are separate records, joined by “and”; a condition that tells them apart may be missing. Equal values may be shown once.

Legend:
Assay in all cases: Broth microdilution MIC, Example 7 (NCL812 and analogues)
[1] = tested on: VRE; assay type: cell-based, Enterococcus spp.; settings: for activity against VRE among analogues: MIC testing, two VRE strains
Summary of the method: (§1)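 CLSI broth microdilution against two MRSA and two VRE strains, tested in duplicate with a third run if results differed by more than one two-fold dilution.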

[2] = tested on: Pseudomonas aeruginosa; assay type: cell-based; settings: 24 hours
[3] = tested on: Escherichia coli; assay type: cell-based; settings: 24 hours
[4] = tested on: MRSA; assay type: cell-based, Staphylococcus aureus; settings: for activity against MRSA among analogues: MIC testing, two MRSA strains
Summary of the method: as §1

[5] = VRE 1, 24 hours, duplicate lines per compound
[6] = VRE 2, 24 hours, duplicate lines per compound
[7] = P. aeruginosa, duplicate lines per compound
[8] = E. coli, duplicate lines per compound
[9] = MRSA 1, 24 hours, duplicate lines per compound
[10] = MRSA 2, 24 hours, duplicate lines per compound
[11] = isolate VRE 1, 24 hours, 1st and 2nd replicate rows
[12] = isolate VRE 2, 24 hours, 1st and 2nd replicate rows
[13] = isolate MRSA 1, 24 hours, 1st and 2nd replicate rows
[14] = isolate MRSA 2, 24 hours, 1st and 2nd replicate rows

Row | MIC (μg/ml) at 24 hours, VRE 1 [1, 5] | MIC (μg/ml) at 24 hours, VRE 2 [1, 6] | MIC (μg/ml) at 24 hours, P. aeruginosa [2, 7] | MIC (μg/ml) at 24 hours, E. coli [3, 8] | MIC (μg/ml) at 24 hours, MRSA 1 [4, 9] | MIC (μg/ml) at 24 hours, MRSA 2 [4, 10] | SMILES | other results
1 | 4 µg/mL | 4 µg/mL | >128 µg/mL | >128 µg/mL | 4 µg/mL | 4 µg/mL | CCC(=NNC(=N)NN=C(CC)c1ccc(Cl)cc1O)c1ccc(Cl)cc1O.Cl [NCL 158] | –
2 | >128 µg/mL | >128 µg/mL | >128 µg/mL | >128 µg/mL | >128 µg/mL | >128 µg/mL | C/C(=N\NC(=N)N/N=C/c1ccc(C(F)(F)F)cc1)c1ccc(C(F)(F)F)cc1.Cl [NCL075] | –
3 | – | – | – | – | – | – | CC(=NNC(=N)NN=C(C)c1ccc(Cl)cc1O)c1ccc(Cl)cc1O.Cl [NCL 173] | MIC (μg/ml) at 24 hours, VRE 1 ([1]; VRE 1, 24 hours): 4 µg/mL; MIC (μg/ml) at 24 hours, VRE 2 ([1]; VRE 2, 24 hours): 32 µg/mL; MIC (μg/ml) at 24 hours, P. aeruginosa ([2]; P. aeruginosa): >128 µg/mL; MIC (μg/ml) at 24 hours, E. coli ([3]; E. coli): >128 µg/mL; MIC (μg/ml) at 24 hours, MRSA 1 ([4]; MRSA 1, 24 hours): 16 µg/mL; MIC (μg/ml) at 24 hours, MRSA 2 ([4]; MRSA 2, 24 hours): 16 µg/mL
4 | >128 µg/mL | >128 µg/mL | >128 µg/mL | >128 µg/mL | >128 µg/mL | >128 µg/mL | Cl.N=C(N/N=C/c1c(F)c(F)c(F)c(F)c1F)N/N=C/c1c(F)c(F)c(F)c(F)c1F [NCL 128] | –
5 | – | 8 µg/mL and 16 µg/mL | >128 µg/mL | >128 µg/mL | – | 16 µg/mL and 32 µg/mL | CSc1ccc(C=NNC(=N)NN=Cc2ccc(SC)cc2)cc1.Cl [NCL 140] | –
6 | – | – | – | – | – | – | O=C(N/N=C/c1ccccc1C(F)(F)F)N/N=C/c1ccccc1C(F)(F)F [NCL013] | MIC (μg/ml) at 24 hours, VRE 1 [1, 11]: >128 µg/mL; MIC (μg/ml) at 24 hours, VRE 2 [1, 12]: >128 µg/mL; MIC (μg/ml) at 24 hours, P. aeruginosa ([2]; 1st and 2nd replicate rows): >128 µg/mL; MIC (μg/ml) at 24 hours, E. coli ([3]; 1st and 2nd replicate rows): >128 µg/mL; MIC (μg/ml) at 24 hours, MRSA 1 [4, 13]: >128 µg/mL; MIC (μg/ml) at 24 hours, MRSA 2 [4, 14]: >128 µg/mL
7 | 4 µg/mL | 4 µg/mL | >128 µg/mL | >128 µg/mL | 16 µg/mL and 32 µg/mL | 4 µg/mL and 8 µg/mL | Cl.N=C(NN=Cc1ccc(F)c(F)c1)NN=Cc1ccc(F)c(F)c1 [NCL 123] | –
8 | 2 µg/mL | 2 µg/mL and 4 µg/mL | >128 µg/mL | >128 µg/mL | 2 µg/mL | 2 µg/mL | Cl.N=C(NN=Cc1ccc(Cl)cc1N)NN=Cc1ccc(Cl)cc1N [NCL 157] | –
9 | >128 µg/mL | >128 µg/mL | >128 µg/mL | >128 µg/mL | >128 µg/mL | >128 µg/mL | CC(=NNC(=N)NN=C(C)c1ccc(Cl)cc1N)c1ccc(Cl)cc1N.Cl [NCL 164] | –
10 | 16 µg/mL | >128 µg/mL | >128 µg/mL | >128 µg/mL | >128 µg/mL | >128 µg/mL | Cl.N=C(NN=Cc1csc2ccc(Cl)cc12)NN=Cc1csc2ccc(Cl)cc12 [NCL 141] | –
11 | 64 µg/mL | 32 µg/mL | >128 µg/mL | >128 µg/mL | >128 µg/mL | 128 µg/mL | Cl.N=C(NN=Cc1ccc(-c2ccccc2)cc1)NN=Cc1ccc(-c2ccccc2)cc1 [NCL112] | activity against VRE among analogues [1]: greatest activity
12 | 32 µg/mL (≈ 87.9 µM) | 32 µg/mL (≈ 87.9 µM) | >128 µg/mL | >128 µg/mL | 32 µg/mL (≈ 87.9 µM) | 64 µg/mL (≈ 176 µM) | N=C(NN=Cc1ccc(Cl)cc1N)NN=Cc1ccc(Cl)cc1N [NCL 169] | –
13 | 64 µg/mL | 128 µg/mL | >128 µg/mL | >128 µg/mL | 64 µg/mL | 64 µg/mL | Cl.N=C(NN=Cc1cccc(O)c1)NN=Cc1cccc(O)c1 [NCL108] | activity against VRE among analogues [1]: greatest activity; activity against MRSA among analogues [4]: greatest activity
14 | – | – | – | – | – | – | Cc1cccc(/C=N/NC(=N)N)c1.Cl [NCL046] | MIC (μg/ml) at 24 hours, VRE 1 [1, 11]: >128 µg/mL; MIC (μg/ml) at 24 hours, VRE 2 [1, 12]: >128 µg/mL; MIC (μg/ml) at 24 hours, P. aeruginosa ([2]; 1st and 2nd replicate rows): >128 µg/mL; MIC (μg/ml) at 24 hours, E. coli ([3]; 1st and 2nd replicate rows): >128 µg/mL; MIC (μg/ml) at 24 hours, MRSA 1 [4, 13]: >128 µg/mL; MIC (μg/ml) at 24 hours, MRSA 2 [4, 14]: >128 µg/mL
15 | – | – | – | – | – | – | CCOC(=O)N(/N=C/c1ccc(Cl)cc1)C(N)=N/N=C/c1ccc(Cl)cc1 [NCL224] | MIC (μg/ml) at 24 hours, VRE 1 ([1]; VRE 1, 24 hours): >128 µg/mL; MIC (μg/ml) at 24 hours, VRE 2 ([1]; VRE 2, 24 hours): >128 µg/mL; MIC (μg/ml) at 24 hours, P. aeruginosa ([2]; P. aeruginosa): >128 µg/mL; MIC (μg/ml) at 24 hours, E. coli ([3]; E. coli): >128 µg/mL; MIC (μg/ml) at 24 hours, MRSA 1 ([4]; MRSA 1, 24 hours): >128 µg/mL; MIC (μg/ml) at 24 hours, MRSA 2 ([4]; MRSA 2, 24 hours): >128 µg/mL
16 | – | – | – | – | – | – | Nc1nc(N/N=C/c2ccc(F)c(F)c2)cc(N/N=C/c2ccc(F)c(F)c2)n1 [NCL222] | MIC (μg/ml) at 24 hours, VRE 1 ([1]; VRE 1, 24 hours): >128 µg/mL; MIC (μg/ml) at 24 hours, VRE 2 ([1]; VRE 2, 24 hours): >128 µg/mL; MIC (μg/ml) at 24 hours, P. aeruginosa ([2]; P. aeruginosa): >128 µg/mL; MIC (μg/ml) at 24 hours, E. coli ([3]; E. coli): >128 µg/mL; MIC (μg/ml) at 24 hours, MRSA 1 ([4]; MRSA 1, 24 hours): >128 µg/mL; MIC (μg/ml) at 24 hours, MRSA 2 ([4]; MRSA 2, 24 hours): >128 µg/mL
17 | 64 µg/mL | 128 µg/mL | >128 µg/mL | >128 µg/mL | 128 µg/mL | 128 µg/mL | Cl.N=C(NN=CC1CCCCC1)NN=CC1CCCCC1 [NCL094] | activity against VRE among analogues [1]: greatest activity; activity against MRSA among analogues [4]: greatest activity
18 | >128 µg/mL | >128 µg/mL | >128 µg/mL | >128 µg/mL | >128 µg/mL | >128 µg/mL | COc1ccc(C=NNC(=N)NN=Cc2ccc(OC)c(OC)c2)cc1OC.Cl [NCL 115] | –
19 | – | – | – | – | – | – | CN(C)c1ccc(C=NNC(=N)NN=Cc2ccc(N(C)C)cc2O)c(O)c1 [NCL171] | activity against VRE among analogues [1]: greatest activity; MIC (μg/ml) at 24 hours, VRE 1 ([1]; VRE 1, 24 hours): 32 µg/mL (≈ 83.5 µM); MIC (μg/ml) at 24 hours, VRE 2 ([1]; VRE 2, 24 hours): >128 µg/mL; MIC (μg/ml) at 24 hours, P. aeruginosa ([2]; P. aeruginosa): >128 µg/mL; MIC (μg/ml) at 24 hours, E. coli ([3]; E. coli): >128 µg/mL; activity against MRSA among analogues [4]: greatest activity; MIC (μg/ml) at 24 hours, MRSA 1 ([4]; MRSA 1, 24 hours): 128 µg/mL (≈ 334 µM); MIC (μg/ml) at 24 hours, MRSA 2 ([4]; MRSA 2, 24 hours): 64 µg/mL (≈ 167 µM)
20 | 128 µg/mL | 128 µg/mL | >128 µg/mL | >128 µg/mL | 64 µg/mL and 128 µg/mL | 128 µg/mL | CC(=NNC(=N)NN=C(C)c1ccc(N2CCNCC2)cc1)c1ccc(N2CCNCC2)cc1.Cl [NCL 161] | –
21 | – | – | – | – | – | – | CC(=NNC(=N)NN)c1ccc(Cl)cc1.Cl [NCL069] | activity against VRE among analogues [1]: greatest activity; MIC (μg/ml) at 24 hours, VRE 1 [1, 11]: 128 µg/mL; MIC (μg/ml) at 24 hours, VRE 2 [1, 12]: 64 µg/mL; MIC (μg/ml) at 24 hours, P. aeruginosa ([2]; 1st and 2nd replicate rows): >128 µg/mL; MIC (μg/ml) at 24 hours, E. coli ([3]; 1st and 2nd replicate rows): >128 µg/mL; activity against MRSA among analogues [4]: greatest activity; MIC (μg/ml) at 24 hours, MRSA 1 [4, 13]: 128 µg/mL; MIC (μg/ml) at 24 hours, MRSA 2 [4, 14]: 128 µg/mL
22 | >128 µg/mL | >128 µg/mL | >128 µg/mL | >128 µg/mL | >128 µg/mL | >128 µg/mL | COc1cc(Br)c(C=NNC(=N)NN=Cc2cc(OC)c(OC)cc2Br)cc1OC.Cl [NCL 135] | –
23 | 4 µg/mL and 8 µg/mL | >128 µg/mL | >128 µg/mL | >128 µg/mL | >128 µg/mL | >128 µg/mL | C#Cc1cccc(C=NNC(=N)NN=Cc2cccc(C#C)c2)c1.Cl [NCL 126] | –
24 | >128 µg/mL | >128 µg/mL | >128 µg/mL | >128 µg/mL | >128 µg/mL | >128 µg/mL | Cl.N=C(N/N=C/c1ccccc1)N/N=C/c1ccccc1 [NCL100] | –
25 | >128 µg/mL | >128 µg/mL | >128 µg/mL | >128 µg/mL | >128 µg/mL | >128 µg/mL | Cl.N=C(NN=Cc1ccc(Cl)o1)NN=Cc1ccc(Cl)o1 [NCL 145] | –
26 | – | – | – | – | – | – | Cl.N=C(NN=Cc1cccc(C(F)(F)F)c1)NN=Cc1cccc(C(F)(F)F)c1 [NCL037] | MIC (μg/ml) at 24 hours, VRE 1 [1, 11]: >126 µg/mL and >128 µg/mL; MIC (μg/ml) at 24 hours, VRE 2 [1, 12]: >128 µg/mL; MIC (μg/ml) at 24 hours, P. aeruginosa ([2]; 1st and 2nd replicate rows): >128 µg/mL; MIC (μg/ml) at 24 hours, E. coli ([3]; 1st and 2nd replicate rows): >128 µg/mL; MIC (μg/ml) at 24 hours, MRSA 1 [4, 13]: >128 µg/mL; MIC (μg/ml) at 24 hours, MRSA 2 [4, 14]: >128 µg/mL
